melting point: 190 °C (dec.)
SMILES: N=C(N)NC(=O)CCCn1nc2ccc(C(=O)NCC(NC(=O)OCc3ccccc3)C(=O)O)cn2c1=O (stereo not shown) [Example 6, 3-[2-(3-Guanidinocarbonyl-1-propyl)-2,3-dihydro-3-oxo-[1,2,4]triazolo[4,3-a]pyridin-6-carbonylamino]-2-[(phenylmethoxy)carbonylamino]propanoic acid]
